Experimental data taken from patent US20250221405A1, “ROOT NODULE FORMATION-PROMOTING COMPOSITION, AND ROOT HAIR FORMATION-PROMOTING COMPOSITION” (KANEKA CORPORATION, priority 2022, published 2025).

Tests used:
[1] = system: Japanese mustard spinach (Haru no Senbatsu); experiment: Experimental Example 5: foliar application, microscopic observation of root hair; format: in vivo; parameters: key: those with a significant root hair increase observed were evaluated as AA; those with a root hair increase observed were evaluated as BB; those with no root hair increase observed were evaluated as CC; those with an overall or partial root hair decrease observed were evaluated as DD
Method: An observation tank formed with ½ MS agar medium (0.8% agar) was prepared in an acrylic tank. Japanese mustard spinach (Haru no Senbatsu) was seeded near the surface of the observation tank. After seeding, the Japanese mustard spinach was cultivated in an incubator set in a light period (6:00-18:00, temperature 26° C., illuminance 120 μmol/m^2·s) and a dark period (18:00-6:00, temperature 18° C.). Twelve to fourteen days after the seeding, the following liquid (a composition for promoting root hair formation) was applied on the leaf surfaces of the plant body (foliar application) so as not to drip on the agar in each of the following treatments. […] A plurality of experiments were conducted by changing the date of seeding, the date of foliar application, the date of observation, and the type of the composition for promoting root hair formation and the like. Tables 5 to 9 show the composition for promoting root hair formation, the outline of operation and the observation results of root hair.

soybeans (Fukuyutaka) = experiment: Experimental Example 2: soil irrigation with composition comprising rhizobium materials, number of root nodules; format: in vivo, soybean
Method: For each of the following treatment, to a mixture of rhizobium materials (rhizobium and azospirillum) mixed with water at a proportion of 10 g/L, SF, SL, or RL was added in the following amount to prepare a solution comprising the rhizobium materials and SF, SL, or RL (a composition for promoting root nodule formation).
A 9 cm poly pot was filled with culture soil and seeded with three seeds of soybeans (Fukuyutaka) in each pot.
After seeding, the seeds were cultivated in a greenhouse set at 28° C. during the day (14h) and 18° C. at night (10h).
Seven days after the seeding, the soybeans in each pot were thinned to one plant, and each pot was irrigated with 4.3 ml of the composition for promoting root nodule formation (in the treatment T1, a mixture of rhizobium materials (rhizobium and azospirillum) mixed with water at a proportion of 10 g/L).
Twenty-one days after the irrigation, the roots were washed with water so as not to remove root nodules, the culture soil was removed, and then, the root nodules formed on the roots were collected.
After the seeding, each pot was fertilized with ½ Hoagland solution (50 mL) once a week. In addition, experiments were conducted on eight pots (eight plants) in each treatment.
A plurality of experiments were conducted by changing the type of the composition for promoting root nodule formation and the like. Tables 2-1 and 2-2 show the date of seeding, the date of irrigating, the date of investigating the number of root nodules, the composition for promoting root nodule formation, and the investigation result of the number of root nodules. Note that the number of root nodules is indicated by a relative value with T1 taken as 100, with a numerical value in parentheses indicating the average number of root nodules actually measured (pieces/plant).

[2] = Table 2-1, irrigation 4.3 ml, diluted 100 times
[3] = Table 2-1, irrigation, diluted 500 times
[4] = Table 2-1, irrigation, diluted 1000 times

## surfactin Na [SF]
[1]; Table 5, aqueous solution diluted 1000 times, compared with T1
  Observation Result (root hair): BB
[1]; Table 5, aqueous solution diluted 2000 times
  Observation Result (root hair): AA
[1]; Table 5, aqueous solution diluted 5000 times
  Observation Result (root hair): AA
Soybeans (Fukuyutaka); [2]
  Number of Root Nodules, average number actually measured: 15.9 pieces/plant
  Number of Root Nodules, relative value with T1 taken as 100: 109
Soybeans (Fukuyutaka); [3]
  Number of Root Nodules, average number actually measured: 16.3 pieces/plant
  Number of Root Nodules, relative value with T1 taken as 100: 111
Soybeans (Fukuyutaka); [4]
  Number of Root Nodules, average number actually measured: 16.9 pieces/plant
  Number of Root Nodules, relative value with T1 taken as 100: 115
